Laboratory results as given in patent US20060069132A1, “Azolecarboxamide herbicides” (priority 2004, published 2006).

Assays:
giant foxtail [1] = assay: Test C pre-/postemergence herbicide test; type: in vivo, Setaria faberi; details: for Foxtail, Giant plant response rating: 500 g ai/ha
Summary of the method: (§1)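 Emerged plants at the 1- to 4-leaf stage (2–18 cm), or freshly planted seeds, received test chemicals in a non-phytotoxic solvent mixture with surfactant. Response was visually scored against controls after 12 to 14 days in the greenhouse, on a 0 (no effect) to 100 (complete control) scale.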

redroot pigweed = assay: Test A pre-/postemergence herbicide test; type: in vivo, Amaranthus retroflexus
Summary of the method: (§2)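 Both application timings were run together: directed soil spray over freshly planted seeds in sandy loam, and runoff spray onto 2–10 cm seedlings. Evaluation after ~10 days in greenhouse used a 0–100 visual scale versus untreated controls.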

goosegrass = assay: Test C pre-/postemergence herbicide test; type: in vivo, Eleusine indica; details: for Goosegrass plant response rating: 500 g ai/ha
Summary of the method: as §1

velvetleaf = assay: Test C pre-/postemergence herbicide test; type: in vivo, Abutilon theophrasti; details: for Velvetleaf plant response rating: 500 g ai/ha
Summary of the method: as §1

morningglory = assay: Test A pre-/postemergence herbicide test; type: in vivo, Ipomoea spp.
Summary of the method: as §2

pigweed = assay: Test C pre-/postemergence herbicide test; type: in vivo, Amaranthus retroflexus; details: for Pigweed plant response rating: 500 g ai/ha
Summary of the method: as §1

giant foxtail [2] = assay: Test A pre-/postemergence herbicide test; type: in vivo, Setaria faberi
Summary of the method: as §2

large crabgrass = assay: Test C pre-/postemergence herbicide test; type: in vivo, Digitaria sanguinalis; details: for Crabgrass, Large plant response rating: 500 g ai/ha
Summary of the method: as §1

soybean = assay: Test C pre-/postemergence herbicide test; type: in vivo, Glycine max; details: for Soybean plant response rating: 500 g ai/ha
Summary of the method: as §1

common ragweed = assay: Test C pre-/postemergence herbicide test; type: in vivo, Ambrosia elatior; parameters: key to Plant response rating, Ragweed: 0 = no effect, 100 = complete control; details: for Ragweed plant response rating: 500 g ai/ha
Summary of the method: as §1

yellow nutsedge = assay: Test C pre-/postemergence herbicide test; type: in vivo, Cyperus esculentus; details: for Nutsedge, Yellow plant response rating: 500 g ai/ha
Summary of the method: as §1

[3] = 31 g ai/ha, preemergence, scale 0 to 100
[4] = 125 g ai/ha, scale 0 (no effect) to 100 (complete control), visual, 12 to 14 days, preemergence
[5] = 250 g ai/ha, scale 0 to 100 (0 no effect, 100 complete control), visual, 12 to 14 days, preemergence
[6] = Postemergence, 500 g ai/ha, 0 to 100 scale, 0 no effect, 100 complete control
[7] = Postemergence, 2000 g ai/ha, 0 to 100 scale, 0 no effect, 100 complete control
[8] = Preemergence, 500 g ai/ha, visual rating, 0 to 100 scale (0 no effect, 100 complete control)
[9] = Preemergence, 2000 g ai/ha, 0 to 100 scale, 0 no effect, 100 complete control
[10] = Preemergence, scale 0 to 100, 0 no effect, 100 complete control
[11] = Preemergence, 2000 g ai/ha, visual rating, 0 to 100 scale (0 no effect, 100 complete control)
[12] = Postemergence, 250 g ai/ha, scale 0 to 100, 0 no effect, 100 complete control
[13] = postemergence, 125 g ai/ha, scale 0 to 100
[14] = postemergence, 62 g ai/ha, scale 0 to 100

CCCCn1nc(C(C)(C)C)cc1C(=O)Nc1cccc(C(=O)NCC)c1 [Compound 41]
45: Morningglory plant response rating (morningglory; [9])
90: Plant response rating, Pigweed (pigweed; [4]) | Plant response rating (0 = no effect, 100 = complete control), Crabgrass, Large (large crabgrass; 62 g ai/ha, preemergence)
60: Plant response rating, Pigweed (redroot pigweed; [7])
85: Pigweed plant response rating (redroot pigweed; [9])
30: Plant response rating, Foxtail, Giant (giant foxtail [1]; [5]) | Plant response rating, Goosegrass (goosegrass; [4]) | Foxtail, Giant plant response rating (giant foxtail [2]; [8])
35: Plant response rating, Foxtail, Giant (giant foxtail [2]; [7])
70: Foxtail, Giant plant response rating (giant foxtail [2]; [9])
20: Plant response rating (0 = no effect, 100 = complete control), Foxtail, Giant (giant foxtail [1]; 62 g ai/ha, preemergence) | Plant response rating, Foxtail, Giant (giant foxtail [1]; [4]) | Plant response rating (0 = no effect, 100 = complete control), Goosegrass (goosegrass; 62 g ai/ha, preemergence) | Morningglory plant response rating (morningglory; [8]) | Plant response rating, Foxtail, Giant (giant foxtail [2]; [6])
40: Plant response rating, Pigweed (redroot pigweed; [6]) | Plant response rating, Goosegrass (goosegrass; [5]) | Plant response rating (0 = no effect, 100 = complete control), Velvetleaf (velvetleaf; 62 g ai/ha, preemergence) | Plant response rating, Velvetleaf (velvetleaf; [4])
100: Plant response rating, Velvetleaf (velvetleaf; [5]) | Plant response rating, Pigweed (pigweed; [5]) | Plant response rating, Crabgrass, Large (large crabgrass; [4]) | Plant response rating, Crabgrass, Large (large crabgrass; [5])
65: Pigweed plant response rating (redroot pigweed; [8])
10: Plant response rating, Goosegrass (goosegrass; [3]) | Plant response rating, Morningglory (morningglory; [6]) | Plant response rating, Morningglory (morningglory; [7]) | Plant response rating, Soybean (soybean; [5]) | Plant response rating, Ragweed (common ragweed; [5])
0: Plant response rating, Foxtail, Giant (giant foxtail [1]; [3]) | Plant response rating, Velvetleaf (velvetleaf; [3]) | Plant response rating, Pigweed (pigweed; [3]) | Plant response rating (0 = no effect, 100 = complete control), Pigweed (pigweed; 62 g ai/ha, preemergence) | Plant response rating, Crabgrass, Large (large crabgrass; [3]) | Plant response rating, Soybean (soybean; [3]) | Plant response rating (0 = no effect, 100 = complete control), Soybean (soybean; 62 g ai/ha, preemergence) | Plant response rating, Soybean (soybean; [4]) | Plant response rating, Ragweed (common ragweed; [3]) | Plant response rating (0 = no effect, 100 = complete control), Ragweed (common ragweed; 62 g ai/ha, preemergence) | Plant response rating, Ragweed (common ragweed; [4]) | Plant response rating, Nutsedge, Yellow (yellow nutsedge; [3]) | Plant response rating (0 = no effect, 100 = complete control), Nutsedge, Yellow (yellow nutsedge; 62 g ai/ha, preemergence) | Plant response rating, Nutsedge, Yellow (yellow nutsedge; [4]) | Plant response rating, Nutsedge, Yellow (yellow nutsedge; [5])

CCN(CC)C(=O)c1cccc(NC(=O)c2cc(C(C)(C)C)nn2CC)n1 [Compound 145]
90: Pigweed plant response rating (redroot pigweed; [6]) | Plant response rating, Pigweed (pigweed; [4])
0: Plant response rating (0 = no effect, 100 = complete control), Foxtail, Giant (giant foxtail [1]; 62 g ai/ha, preemergence) | Plant response rating, Foxtail, Giant (giant foxtail [1]; [4]) | Plant response rating (0 = no effect, 100 = complete control), Ragweed (common ragweed; 62 g ai/ha, preemergence) | Plant response rating, Ragweed (common ragweed; [4]) | Plant response rating (0 = no effect, 100 = complete control), Nutsedge, Yellow (yellow nutsedge; 62 g ai/ha, preemergence) | Plant response rating, Nutsedge, Yellow (yellow nutsedge; [4]) | Nutsedge, Yellow plant response rating (yellow nutsedge; [10])
70: Foxtail, Giant plant response rating (giant foxtail [1]; [10]) | Plant response rating, Goosegrass (goosegrass; [4])
25: Morningglory plant response rating (morningglory; [11])
80: Goosegrass plant response rating (goosegrass; [10]) | Plant response rating, Crabgrass, Large (large crabgrass; [5]) | Crabgrass, Large plant response rating (large crabgrass; [10])
95: Pigweed plant response rating (redroot pigweed; preemergence, 500 g ai/ha, visual injury, 0 to 100 scale (0 no effect, 100 complete control)) | Pigweed plant response rating (pigweed; [10])
50: Plant response rating, Foxtail, Giant (giant foxtail [1]; [5]) | Plant response rating (0 = no effect, 100 = complete control), Goosegrass (goosegrass; 62 g ai/ha, preemergence) | Plant response rating, Crabgrass, Large (large crabgrass; [4])
85: Plant response rating (0 = no effect, 100 = complete control), Pigweed (pigweed; 62 g ai/ha, preemergence) | Foxtail, Giant plant response rating (giant foxtail [2]; [8])
20: Plant response rating, Velvetleaf (velvetleaf; [4]) | Morningglory plant response rating (morningglory; [8]) | Ragweed plant response rating (common ragweed; [10])
100: Plant response rating, Pigweed (redroot pigweed; [7]) | Pigweed plant response rating (redroot pigweed; [11]) | Velvetleaf plant response rating (velvetleaf; [10]) | Foxtail, Giant plant response rating (giant foxtail [2]; [11])
15: Morningglory plant response rating (morningglory; [6])
30: Plant response rating, Morningglory (morningglory; [7])
40: Foxtail, Giant plant response rating (giant foxtail [2]; [6])
10: Plant response rating, Soybean (soybean; [4])
60: Plant response rating, Foxtail, Giant (giant foxtail [2]; [7]) | Soybean plant response rating (soybean; [10])

C#CCOC(=O)c1cccc(NC(=O)c2cc(C(C)(C)C)nn2CC)c1 [Compound 84]
10: Goosegrass plant response rating (goosegrass; Postemergence, scale 0 to 100) | Plant response rating, Morningglory (morningglory; [7]) | Plant response rating, Foxtail, Giant (giant foxtail [2]; [7])
45: Plant response rating, Pigweed (redroot pigweed; [7])
0: Foxtail, Giant plant response rating (giant foxtail [1]; Postemergence, scale 0 to 100) | Plant response rating, Foxtail, Giant (giant foxtail [1]; [12]) | Plant response rating, Foxtail, Giant (giant foxtail [1]; [13]) | Plant response rating, Foxtail, Giant (giant foxtail [1]; [14]) | Pigweed plant response rating (redroot pigweed; [8]) | Pigweed plant response rating (redroot pigweed; [9]) | Plant response rating, Goosegrass (goosegrass; [13]) | Plant response rating, Goosegrass (goosegrass; [14]) | Velvetleaf plant response rating (velvetleaf; Postemergence, scale 0 to 100) | Plant response rating, Velvetleaf (velvetleaf; [12]) | Plant response rating, Velvetleaf (velvetleaf; [13]) | Plant response rating, Velvetleaf (velvetleaf; [14]) | Morningglory plant response rating (morningglory; [8]) | Foxtail, Giant plant response rating (giant foxtail [2]; [8]) | Foxtail, Giant plant response rating (giant foxtail [2]; [9]) | Plant response rating, Crabgrass, Large (large crabgrass; [12]) | Plant response rating, Crabgrass, Large (large crabgrass; [13]) | Plant response rating, Crabgrass, Large (large crabgrass; [14]) | Plant response rating, Soybean (soybean; [13]) | Plant response rating, Soybean (soybean; [14]) | Ragweed plant response rating (common ragweed; Postemergence, scale 0 to 100) | Plant response rating, Ragweed (common ragweed; [12]) | Plant response rating, Ragweed (common ragweed; [13]) | Plant response rating, Ragweed (common ragweed; [14]) | Nutsedge, Yellow plant response rating (yellow nutsedge; Postemergence, scale 0 to 100) | Plant response rating, Nutsedge, Yellow (yellow nutsedge; [12]) | Plant response rating, Nutsedge, Yellow (yellow nutsedge; [13]) | Plant response rating, Nutsedge, Yellow (yellow nutsedge; [14])
15: Foxtail, Giant plant response rating (giant foxtail [2]; [6])
50: Pigweed plant response rating (redroot pigweed; [6]) | Crabgrass, Large plant response rating (large crabgrass; Postemergence, scale 0 to 100)
20: Soybean plant response rating (soybean; Postemergence, scale 0 to 100) | Plant response rating, Soybean (soybean; [12])
100: Pigweed plant response rating (pigweed; Postemergence, scale 0 to 100) | Plant response rating, Pigweed (pigweed; [12]) | Plant response rating, Pigweed (pigweed; [13]) | Plant response rating, Pigweed (pigweed; [14])
5: Plant response rating, Goosegrass (goosegrass; [12]) | Morningglory plant response rating (morningglory; [6])
